These results are taken from patent US20150306090A1, “ORALLY ADMINISTERED MEDICAL COMPOSITION” (ASTELLAS PHARMA INC., priority 2012, published 2015).

One may read the solubility as the dissolved amount per volume that the medium holds. High values mean a readily soluble substance, low ones a poorly soluble substance.

Converted amounts (≈) assume the structure as drawn.

This data set in a line: physchem. It is filed as physicochemical. The source says:
Further, the current product (Vesicare (registered trademark)) has been placed on the market, as a drug-immediate-release formulation. Furthermore, although the active ingredient is not the same, a bi-layered tablet comprising a modified release portion containing tamsulosin or a pharmaceutically acceptable salt thereof, and an immediate release portion containing solifenacin or a pharmaceutically acceptable salt thereof, is known (Patent literature 7).

`O=C(O[C@H]1CN2CCC1CC2)N1CCc2ccccc2[C@@H]1c1ccccc1` [solifenacin, (R)-quinuclidin-3-yl (S)-1-phenyl-1,2,3,4-tetrahydroisoquinoline-2-carboxylate] yielded a solubility (pH 6.8, aqueous buffer) of 430 mg/mL (≈ 1190 mM) and a solubility (water) of 610 mg/mL (≈ 1680 mM).
